We go through three compounds from US7067257B2, “Thyrotropin-releasing hormone analogues and their therapeutic applications” (University of Florida, priority 2002, dated 2006).

One may read the half-life as how long it takes for the measured level to halve. Lower therefore signals rapid decline.

Square brackets hold non-standard residues; d marks the D form. Peptide text beside a SMILES is read from it. pGlu = O=C1CC[C@@H](C(=O)O)N1

A short description of data set [1]: in vitro stability in mouse brain homogenate. The format is in vitro ADME. As to conditions: mouse brain homogenate (20% w/v). How it is done:
In vitro stability studies in mouse brain homogenate (20% w/v) were conducted at 100 μM concentration of TRH analogues of Formula I wherein R^3 is an ester moiety. Analytical reversed-phase gradient HPLC with UV detection (λ=214 nm) was used to monitor the decline in the concentration in the compound added. The half-lives (t1/2) were 20 and 22 minutes for the TRH analogues derived from primary alcohols and 25 minutes and 70 minute for TRH analogues derived from […]. TRH analogues of the subject invention in which R^3 is benzyl ester was discovered to be relatively stable in the tissue (t1/2>2 hours).

For data set [2] the following is noted: rat, human, in vivo; cited from earlier work.
Data set [3] relates to Swiss Webster mice. In words: duration of analeptic action, antagonism of barbituate-induced anesthesia (Example 6). It counts as in vivo. As to conditions: 15 μmol/kg i.v.; pentobarbital injection at 60 minutes compared to after 10 minutes. On the procedure:
A pharmacological paradigm was used to assess the potency of the subject TRH analogues as central nervous system agents administered to animals in their prodrug forms in vivo. The antagonism on the barbituate-induced anesthesia was explored to survey the extent of activation of cholinergic neurons by the test compounds. Ten to sixteen Swiss Webster mice (30±2 g) were used in each group. Test compounds were dissolved in degassed DMSO. The vehicle alone (1.5 ml/kg body weight) or equimolar doses of TRH as control and prodrugs according to the present invention (15 μmol/kg body weight) were injected through the tail vein. After 10 minutes, each animal received an intraperitoneal (i.p.) injection of sodium pentobarbital at dose 60 mg/kg bodyweight. An increase in the time after which the animals were injected with TRH and a TRH analogue according to the present invention and after the cholinergic challenge was made was increased. The sleeping time was recorded as the time elapsed from the onset of the loss of righting reflex until the reflex was regained.

In data set [4] the test system is Swiss Webster mice. In words: antagonism of barbiturate-induced anesthesia in mice (Example 9). The format is in vivo. The following applies: 10 μmole/kg i.v.; sodium pentobarbital 60 mg/kg i.p. after 10 minutes. How it is done: The antagonism of the barbiturate-induced anesthesia in mice was used to assess the increase in the access of the TRH analogues of the present invention to the central nervous system compared to the parent TRH-like tripeptide (pGlu-Glu-Pro-NH2). In this assay related to the analeptic activity of the TRH-like tripeptide, 10 to 18 Swiss Webster mice (30±2 g body weight) were used in each group. The vehicle alone (1.5 ml/kg body weight) or equimolar doses of TRH-like tripeptide as control and the TRH analogues of Formula I (10 μmole/kg body weight) were injected through the tail vein (i.v.). In another group of animals, the TRH-like tripeptide was administered at 10-times higher dose (100 μmol/kg) for comparison. After 10 minutes, each animal received an intraperitoneal (i.p.) injection of sodium pentobarbital at a dose of 60 mg/kg body weight. The sleeping time was recorded from the onset of the loss of righting reflex until the reflex was regained.
Based on measuring analeptic activity in the animal model selected.

For the compound `NC(=O)[C@@H]1CCCN1C(=O)[C@H](CCC(=O)OCc1ccccc1)NC(=O)[C@@H]1CCC(=O)N1` [benzyl ester] (HELM PEPTIDE1{[Glp].E.P.[am]}|CHEM1{[c1ccc(CO[*:1])cc1]}$PEPTIDE1,CHEM1,2:R3-1:R1$$$V2.0), the half-life at 100 μM in data set [1] was more than 2 h. As for `NC(=O)[C@@H]1CCCN1C(=O)[C@H](Cc1cnc[nH]1)NC(=O)[C@@H]1CCC(=O)N1` [TRH, L-pyroglutamyl-L-histidyl-L-prolinamide], the biological half-life in data set [2] was 4–6 minutes. In addition, the “loss of central nervous system (analeptic) activity” value in the data set on Swiss Webster mice [3] is on record as “over 50%”. Compound “[pGlu]-Glu-Pro-NH2 [TRH-like tripeptide]” showed a sleeping time with Swiss Webster mice [4] of 65±3 minutes SEM.
